From patent US12310975B2, “Modulators of BCL6 proteolysis and associated methods of use” (Arvinas Operations, Inc., priority 2019, dated 2025)
Where two headings read alike, the source gives them in different places.

Molecular target: BCL6 (Homo sapiens (Human), UniProt P41182)
Experiment: Immunofluorescence high content imaging of BCL6 degradation in T47D cells
Type: cell-based
Details: for DC50: class symbols A-D, read-out: EC50 (nM)*
Method in brief: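 BCL6 loss was quantified by high-content imaging (10×, 4 fields/well) after PFA fixation and anti-BCL6/Alexa-488 staining with Hoechst nuclear and CellMask counterstains. Compounds were applied for 3 days to T47D breast cancer cells in RPMI-10% FBS, 11 points, 3-fold steps, top 0.1 or 1 μM.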

With `O=C1CCC(N2C(=O)c3ccc(OCCOCCN4CCC(Oc5cc(Nc6ccc7c(c6)CCC(=O)N7)c(Cl)cc5[N+](=O)[O-])CC4)cc3C2=O)C(=O)N1` (centres unmarked) [compound 74, 5-(2-(2-(4-(4-chloro-2-nitro-5-((2-oxo-1,2,3,4-tetrahydroquinolin-6-yl)amino)phenoxy)piperidin-1-yl)ethoxy)ethoxy)-2-(2,6-dioxopiperidin-3-yl)isoindoline-1,3-dione] the DC50 was greater than 100 nM.
`CC(=O)COc1cc2cc(Nc3nc(N4CCOC(COc5ccc6c(c5)C(=O)N(C5CCC(=O)NC5=O)C6=O)C4)ncc3Cl)ccc2n(C)c1=O` (centres unmarked) [compound 179, 5-((4-(5-chloro-4-((1-methyl-2-oxo-3-(2-oxopropoxy)-1,2-dihydroquinolin-6-yl)amino)pyrimidin-2-yl)morpholin-2-yl)methoxy)-2-(2,6-dioxopiperidin-3-yl)isoindoline-1,3-dione] was tested, and the IC50 was no less than 100 nM and the Dmax (T47D) was 50 to 70%.
Compound `CNC(=O)COc1cc2cc(Nc3nc(N4CCC(c5cccc(OCCOCCOCCOCCOc6ccc7c(c6)CN(C6CCC(=O)NC6=O)C7=O)c5)CC4)ncc3Cl)ccc2n(C)c1=O` (centres unmarked) [compound 88, 2-((6-((5-chloro-2-(4-(3-(2-(2-(2-(2-((2-(2,6-dioxopiperidin-3-yl)-1-oxoisoindolin-5-yl)oxy)ethoxy)ethoxy)ethoxy)ethoxy)phenyl)piperidin-1-yl)pyrimidin-4-yl)amino)-1-methyl-2-oxo-1,2-dihydroquinolin-3-yl)oxy)-N-methylacetamide] has a DC50 of 10 to 50 nM.
For `CNC(=O)COc1cc2cc(Nc3nc(N4CCC(OCCOCCOCCCOc5ccccc5CCOc5ccc6c(c5)CN(C5CCC(=O)NC5=O)C6=O)CC4)ncc3Cl)ccc2n(C)c1=O` (centres unmarked) [compound 111, 2-((6-((5-chloro-2-(4-(2-(2-(3-(2-(2-((2-(2,6-dioxopiperidin-3-yl)-1-oxoisoindolin-5-yl)oxy)ethyl)phenoxy)propoxy)ethoxy)ethoxy)piperidin-1-yl)pyrimidin-4-yl)amino)-1-methyl-2-oxo-1,2-dihydroquinolin-3-yl)oxy)-N-methylacetamide], the DC50 was greater than 100 nM.
`CNC(=O)COc1cc2cc(Nc3nc(N4CCN(C)CC4)ncc3Cl)ccc2n(CCCCOc2ccc3c(c2)C(=O)N(C2CCC(=O)NC2=O)C3=O)c1=O` (centres unmarked) [compound 238, 2-((6-((5-chloro-2-(4-methylpiperazin-1-yl)pyrimidin-4-yl)amino)-1-(4-((2-(2,6-dioxopiperidin-3-yl)-1,3-dioxoisoindolin-5-yl)oxy)butyl)-2-oxo-1,2-dihydroquinolin-3-yl)oxy)-N-methylacetamide] was tested, and the IC50 was no less than 100 nM and the Dmax (T47D) was less than 50%.
With `CN1C(=O)CCc2cc(Nc3cc(OC4CCN(C5CCN(c6ccc7c(c6)C(=O)N(C6CCC(=O)NC6=O)C7=O)CC5)CC4)c([N+](=O)[O-])cc3Cl)ccc21` (centres unmarked) [compound 79, 5-(4-(4-chloro-5-((1-methyl-2-oxo-1,2,3,4-tetrahydroquinolin-6-yl)amino)-2-nitrophenoxy)-[1,4′-bipiperidin]-1′-yl)-2-(2,6-dioxopiperidin-3-yl)isoindoline-1,3-dione] the DC50 was greater than 100 nM.
`CNC(=O)COc1cc2cc(Nc3nc(N4CC5(CCN(CC6CCN(c7cccc8c7C(=O)N(C7CCC(=O)NC7=O)C8=O)CC6)CC5)C4)ncc3Cl)ccc2n(C(C)C)c1=O` (centres unmarked) [compound 426, 2-{[6-({5-chloro-2-[7-({1-[2-(2,6-dioxopiperidin-3-yl)-1,3-dioxo-2,3-dihydro-1H-isoindol-4-yl]piperidin-4-yl}methyl)-2,7-diazaspiro[3.5]nonan-2-yl]pyrimidin-4-yl}amino)-2-oxo-1-(propan-2-yl)-1,2-dihydroquinolin-3-yl]oxy}-N-methylacetamide] gave a Dmax (T47D cells) of no less than 70%.
Work on `CNC(=O)COc1cc2cc(Nc3nc(N4CCC(OCCOCCOCCOCCOc5cccc(-c6ccc7c(c6)CN(C6CCC(=O)NC6=O)C7=O)c5)CC4)ncc3Cl)ccc2n(C)c1=O` (centres unmarked) [compound 109, 2-((6-((5-chloro-2-(4-(2-(2-(2-(2-(3-(2-(2,6-dioxopiperidin-3-yl)-1-oxoisoindolin-5-yl)phenoxy)ethoxy)ethoxy)ethoxy)ethoxy)piperidin-1-yl)pyrimidin-4-yl)amino)-1-methyl-2-oxo-1,2-dihydroquinolin-3-yl)oxy)-N-methylacetamide] yielded a DC50 greater than 100 nM.
In the case of `CNC(=O)COc1cc2cc(Nc3nc(N4CCC(OCCOCCOCCOCCOCCOCC(=O)N[C@H](C(=O)N5C[C@H](O)C[C@H]5C(=O)NCc5ccc(-c6scnc6C)cc5)C(C)(C)C)CC4)ncc3Cl)ccc2n(C)c1=O` [compound 82, (2S,4R)-1-((S)-2-(tert-butyl)-20-((1-(5-chloro-4-((1-methyl-3-(2-(methylamino)-2-oxoethoxy)-2-oxo-1,2-dihydroquinolin-6-yl)amino)pyrimidin-2-yl)piperidin-4-yl)oxy)-4-oxo-6,9,12,15,18-pentaoxa-3-azaicosanoyl)-4-hydroxy-N-(4-(4-methylthiazol-5-yl)benzyl)pyrrolidine-2-carboxamide], the DC50 was 50 to 100 nM.
`CNC(=O)COc1cc2cc(Nc3nc(N4CCC[C@H](COc5cccc6c5C(=O)N(C5CCC(=O)NC5=O)C6=O)C4)ncc3Cl)ccc2n(C2CC2)c1=O` (stereo partly drawn) [compound 336, 2-{[6-({5-chloro-2-[(3S)-3-({[2-(2,6-dioxopiperidin-3-yl)-1,3-dioxo-2,3-dihydro-1H-isoindol-4-yl]oxy}methyl)piperidin-1-yl]pyrimidin-4-yl}amino)-1-cyclopropyl-2-oxo-1,2-dihydroquinolin-3-yl]oxy}-N-methylacetamide] showed a Dmax (T47D cells) of 50 to 70% and an IC50 (T47D cells) of 10 to 50 nM.
`CNC(=O)COc1cc2cc(Nc3nc(N4CCC(CCOC5CN(c6cccc7c6C(=O)N(C6CCC(=O)NC6=O)C7=O)C5)CC4)ncc3Cl)ccc2n(C)c1=O` (centres unmarked) [compound 252, 2-((6-((5-chloro-2-(4-(2-((1-(2-(2,6-dioxopiperidin-3-yl)-1,3-dioxoisoindolin-4-yl)azetidin-3-yl)oxy)ethyl)piperidin-1-yl)pyrimidin-4-yl)amino)-1-methyl-2-oxo-1,2-dihydroquinolin-3-yl)oxy)-N-methylacetamide] showed an IC50 of less than 10 nM and a Dmax (T47D) of 50 to 70%.
`CNC(=O)COc1cc2cc(Nc3nc(N4CCC(OCCOCCOCCOCCOCCOCCOc5cc(-c6scnc6C)ccc5CNC(=O)[C@@H]5C[C@@H](O)CN5C(=O)C(c5cc(C)no5)C(C)C)CC4)ncc3Cl)ccc2n(C)c1=O` (stereo partly drawn) [compound 58, (2S,4R)-N-(2-((17-((1-(5-chloro-4-((1-methyl-3-(2-(methylamino)-2-oxoethoxy)-2-oxo-1,2-dihydroquinolin-6-yl)amino)pyrimidin-2-yl)piperidin-4-yl)oxy)-3,6,9,12,15-pentaoxaheptadecyl)oxy)-4-(4-methylthiazol-5-yl)benzyl)-4-hydroxy-1-(3-methyl-2-(3-methylisoxazol-5-yl)butanoyl)pyrrolidine-2-carboxamide] gave a DC50 greater than 100 nM.
`CNC(=O)COc1cc2cc(Nc3nc(N4CCC(c5cn(CCOCCOCCOCCOCCOCC(=O)N[C@H](C(=O)N6C[C@H](O)C[C@H]6C(=O)N[C@@H](C)c6ccc(-c7scnc7C)cc6)C(C)(C)C)nn5)CC4)ncc3Cl)ccc2n(C)c1=O` [compound 117, (2S,4R)-1-((S)-2-(tert-butyl)-20-(4-(1-(5-chloro-4-((1-methyl-3-(2-(methylamino)-2-oxoethoxy)-2-oxo-1,2-dihydroquinolin-6-yl)amino)pyrimidin-2-yl)piperidin-4-yl)-1H-1,2,3-triazol-1-yl)-4-oxo-6,9,12,15,18-pentaoxa-3-azaicosanoyl)-4-hydroxy-N-((S)-1-(4-(4-methylthiazol-5-yl)phenyl)ethyl)pyrrolidine-2-carboxamide] showed a DC50 of 10 to 50 nM.
